Data on nine molecules can be found in ChEMBL document CHEMBL3751741, “Discovery of a potent and highly fluorescent sirtuin inhibitor” (Medchemcomm, 2015).

≈ marks a conversion by molar mass, not a printed value. Calls of active or inactive are those of the source. No cut-off for these calls is given here.

For series [1], the target named is T1, NAD-dependent protein deacetylase sirtuin-2 (Homo sapiens, UniProt Q8IXJ6).
T1 sequence (Q8IXJ6 whole entry): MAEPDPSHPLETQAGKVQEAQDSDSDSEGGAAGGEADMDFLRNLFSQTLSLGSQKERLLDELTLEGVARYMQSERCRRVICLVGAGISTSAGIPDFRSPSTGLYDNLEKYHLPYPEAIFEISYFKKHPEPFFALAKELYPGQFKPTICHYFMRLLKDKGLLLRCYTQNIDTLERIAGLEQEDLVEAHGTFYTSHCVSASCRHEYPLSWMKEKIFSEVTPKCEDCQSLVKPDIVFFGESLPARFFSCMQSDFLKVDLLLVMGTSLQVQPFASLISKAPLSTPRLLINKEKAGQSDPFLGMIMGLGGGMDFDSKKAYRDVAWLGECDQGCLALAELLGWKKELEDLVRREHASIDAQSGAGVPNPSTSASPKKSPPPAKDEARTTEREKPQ
The series can be described thus: Inhibition of recombinant human C-terminal His-tagged SIRT2 (13 to 319 residues) using human p53 derived peptides as substrate incubated for 45 mins by fluorescence assay.

The nature of series [2]: Antiproliferative activity against human HCT116 cells assessed as cell viability at 50 uM after 72 hrs by MTS assay (reference value: 100 +/- 6.01%). The series is classed as functional. Conditions: HCT-116, 72 h, read-out: Activity. On the technique in general: Formazan colour is commonly taken as a measure of viable cells.
The target in series [3] is T2, NAD-dependent protein deacetylase sirtuin-1 (Homo sapiens) (UniProt Q96EB6).
T2 sequence (whole entry): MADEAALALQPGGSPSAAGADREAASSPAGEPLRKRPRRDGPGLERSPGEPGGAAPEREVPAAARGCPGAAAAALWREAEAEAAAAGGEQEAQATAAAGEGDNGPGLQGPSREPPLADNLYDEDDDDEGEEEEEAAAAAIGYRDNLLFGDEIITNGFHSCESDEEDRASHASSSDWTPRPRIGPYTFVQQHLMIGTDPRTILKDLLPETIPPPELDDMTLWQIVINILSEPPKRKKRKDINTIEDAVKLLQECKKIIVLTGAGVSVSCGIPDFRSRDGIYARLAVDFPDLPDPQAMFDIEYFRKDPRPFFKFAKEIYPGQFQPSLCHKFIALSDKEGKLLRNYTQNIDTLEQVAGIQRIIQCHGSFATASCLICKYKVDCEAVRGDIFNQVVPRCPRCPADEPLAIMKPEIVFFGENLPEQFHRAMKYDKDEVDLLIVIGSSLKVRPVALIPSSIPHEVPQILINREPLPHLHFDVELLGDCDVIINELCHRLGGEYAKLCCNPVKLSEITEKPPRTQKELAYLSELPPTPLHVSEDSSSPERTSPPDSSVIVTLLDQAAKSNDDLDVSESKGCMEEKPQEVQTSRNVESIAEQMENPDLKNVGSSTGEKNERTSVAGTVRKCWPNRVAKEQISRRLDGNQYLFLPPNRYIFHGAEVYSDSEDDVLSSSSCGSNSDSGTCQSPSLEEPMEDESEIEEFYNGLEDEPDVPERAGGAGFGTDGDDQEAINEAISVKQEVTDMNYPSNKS
The experiment in a line: Inhibition of recombinant human N-terminal GST-tagged SIRT1 (193 to 741 residues) using human p53 derived peptides as substrate at 50 uM incubated for 45 mins by fluorescence assay.

Series [4] addresses T3, NAD-dependent protein deacetylase sirtuin-2 (Homo sapiens) (UniProt Q8IXJ6).
T3 sequence (whole entry): T1 sequence (Q8IXJ6 whole entry)
The experiment in a line: Inhibition of recombinant human C-terminal His-tagged SIRT2 (13 to 319 residues) using human p53 derived peptides as substrate at 50 uM incubated for 45 mins by fluorescence assay.

A further series concerns CCRF-CEM. The series can be described thus: Antiproliferative activity against human CCRF-CEM cells assessed as cell viability at 50 uM after 72 hrs by MTS assay (reference value: 100 +/- 5.54%). The series is classed as functional. To be noted: read-out: Activity.
Series [5] concerns the target T4, NAD-dependent protein deacetylase sirtuin-1 (Homo sapiens, UniProt Q96EB6).
T4 sequence (Q96EB6 whole entry): T2 sequence (whole entry)
The experiment in a line: Inhibition of recombinant human N-terminal GST-tagged SIRT1 (193 to 741 residues) using human p53 derived peptides as substrate incubated for 45 mins by fluorescence assay.

For a further series, the system named is MDA-MB-468. The series can be described thus: Antiproliferative activity against human MDA-MB-468 cells assessed as cell viability at 50 uM after 72 hrs by MTS assay (reference value: 100 +/- 8.06%). The series is classed as functional. To be noted: MDA-MB-468, 72 h, read-out: Activity.
Series [6] in a line: Drug uptake in cytoplasm of human HCT116 cells at 50 uM by fluorescence microscopy. The series is classed as ADME, cell-based. To be noted: hct-116, 50 µM.
Series [7] can be described thus: Drug uptake in cytoplasm of human CCD18 cells at 50 uM by fluorescence microscopy. The series is classed as ADME, cell-based. Conditions: ccd18, 50 µM.
Series [8] addresses T3, NAD-dependent protein deacetylase sirtuin-2 (Homo sapiens). The experiment in a line: Inhibition of SIRT2 in human HCT116 cells assessed as increase in alpha-tubulin acetylation up to 50 uM incubated for 24 hrs by Western blotting method. It is filed as cell-based. To be noted: HCT-116. Background: A western blot detects proteins with antibodies after separation by electrophoresis.

Series [9] can be described thus: Aqueous solubility of compound in water containing 0.5% DMSO by UV-spectrophotometry analysis. The series is classed as physicochemical.
Series [10] has as its target T3, NAD-dependent protein deacetylase sirtuin-2 (Homo sapiens). The series can be described thus: Reversible inhibition of recombinant human C-terminal His-tagged SIRT2 (13 to 319 residues) using human p53 derived peptides as substrate at 10 uM incubated for 45 mins by fluorescence assay.
Series [11] shares this target. The series can be described thus: Competitive inhibition of recombinant human C-terminal His-tagged SIRT2 (13 to 319 residues) using human p53 derived peptides as substrate incubated for 45 mins by fluorescence assay in presence of increasing NAD+ level.

The IC50 is the concentration at which inhibition is half-maximal. The inhibition is the share of the control response that was lost under treatment. In the case of `CCOC(=O)c1ccc2[nH]c(-c3ccc(N4CCOCC4)cc3)nc2c1`, the figures for the IC50 in series [1] and in series [5] were 52.9 µM and 57.5 µM, respectively. Besides, the values for the viability at 50 µM (in series [2]; with CCRF-CEM; in the series with MDA-MB-468) were 54.5%, 37.8% and 42.6%, respectively. The results for the inhibition in [3] and in series [4] were 37.8% and 60.7%, respectively.
For the molecule `N#C/C(=C\c1ccc(-c2cc(Cl)ccc2Cl)o1)C(=O)Nc1cccc2ncccc12`, the IC50 in series [5] was found to be 68 µM.
As to `CCOC(=O)c1ccc2[nH]c(-c3ccc(C(C)(C)C)cc3)nc2c1`, the viability at 50 µM worked out at 54.2% in series [2], 82.2% in the series with CCRF-CEM and 54.6% with MDA-MB-468. In series [4], the inhibition came to 50.2%.
On to `CCOC(=O)c1ccc2[nH]c(-c3ccc(N(C)C)cc3)nc2c1`, for which, in [1], the IC50 stood at 13.6 µM. For the same molecule, the viability at 50 µM in [2] worked out at 29.7%; in the series with CCRF-CEM, 49.5%; with MDA-MB-468, 31.1%. In series [4], the inhibition was 87.5%.
With `CCOC(=O)c1ccc2[nH]c(-c3ccccc3)nc2c1`, the viability at 50 µM in [2] worked out at 29.7%; in the series on CCRF-CEM, 58.3%; with MDA-MB-468 it was 49.3%. In addition, the inhibition was 24.7% in [3] and 36.3% in series [4].
On to `CCOC(=O)c1ccc2[nH]c(-c3ccc(OC)cc3)nc2c1`, for which the figures for the viability at 50 µM (in series [2]; with CCRF-CEM; with MDA-MB-468) were 75.6%, 87.4% and 82.8%, respectively. In addition, the inhibition in [4] is 26%.
The solubility is the dissolved amount per volume that the medium holds. High values mean much dissolved substance, low ones little dissolved substance. Consider `CCOC(=O)c1ccc2[nH]c(-c3ccc(N4CCCCC4)cc3)nc2c1`, for which the IC50 in series [1] is 9 µM. In addition, the figures for the viability at 50 µM (in series [2]; with CCRF-CEM; in the series on MDA-MB-468) were 15.9%, 36.3% and 34%, respectively. The Drug uptake result in series [6] and in series [7] was “Active” in each case. Moreover, the inhibition in series [4] turned out to be 93.2%. The inhibition entry in series [8], in [10] and in series [11] was “Active” each time. The molecule also yielded a solubility in [9] of 59 µM (≈ 20.6 µg/mL).
As to `CCOC(=O)c1ccc2[nH]c(-c3ccc(C)cc3)nc2c1`, the viability at 50 µM was 48.4% in series [2], 61.2% in the series on CCRF-CEM and 89.1% in the series on MDA-MB-468. Moreover, the inhibition in series [4] is 45.2%.
For `CCOC(=O)c1ccc2[nH]c(-c3ccc(O)cc3)nc2c1` the same measures were 77.1%, 85.5%, 76.5% and 42.9%.
